Test results: ChEMBL document CHEMBL1201862, “PubChem BioAssay data set” (2004)
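Results reflect a 48-hour exposure of cells in 96-well plates to compound at five concentrations. GI50: concentration for 50% inhibition of growth.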 The source made the active and inactive calls. Cut-off read from the data, not from the text of the source: active = GI50 up to about 1.1 µM and inactive = higher.

What was measured:
Assay in all cases: DTP human tumour cell line panel, 48 h
ACHN = system: ACHN
BT-549 = system: BT-549
HCT-116 = system: HCT-116
HL-60 = system: HL-60
HOP-62 = system: HOP-62
KM12 = system: KM12
MCF7 = system: MCF7
MDA-MB-435 = system: MDA-MB-435
NCI-H226 = system: NCI-H226
NCI-H460 = system: NCI-H460
NCI-H522 = system: NCI-H522
PC-3 = system: PC-3
SK-MEL-28 = system: SK-MEL-28
SK-MEL-5 = system: SK-MEL-5
SNB-19 = system: SNB-19
T47D = system: T47D
U-251 = system: U-251
UO-31 = system: UO-31
SR = system: SR

| SMILES | GI50 (ACHN) | GI50 (BT-549) | GI50 (HCT-116) | GI50 (HL-60) | GI50 (HOP-62) | GI50 (KM12) | GI50 (MCF7) | GI50 (MDA-MB-435) | GI50 (NCI-H226) | GI50 (NCI-H460) | GI50 (NCI-H522) | GI50 (PC-3) | GI50 (SK-MEL-28) | GI50 (SK-MEL-5) | GI50 (SNB-19) | GI50 (T47D) | GI50 (U-251) | GI50 (UO-31) | GI50 (SR) |
| --- | --- | --- | --- | --- | --- | --- | --- | --- | --- | --- | --- | --- | --- | --- | --- | --- | --- | --- | --- |
| COc1c(OC)c(OC)c2c(=O)c(OC)c(-c3ccc4c(c3)OCO4)oc2c1OC | 68.7 µM (inactive) | > 100 µM (inactive) | 86.7 µM (inactive) | 11.6 µM (inactive) | > 100 µM (inactive) | > 100 µM (inactive) | > 100 µM (inactive) | 82.4 µM (inactive) | > 100 µM (inactive) | > 100 µM (inactive) | > 100 µM (inactive) | 69.2 µM (inactive) | > 100 µM (inactive) | 44.8 µM (inactive) | > 100 µM (inactive) | 41.9 µM (inactive) | > 100 µM (inactive) | 57.8 µM (inactive) |  |
| COC(=O)c1ccccc1C1CN=NC12Cc1cc3c(cc1C2=O)CCC3 (stereo not drawn) | > 100 µM (inactive) | > 100 µM (inactive) | 36.3 µM (inactive) | 21.4 µM (inactive) | > 100 µM (inactive) | 32.1 µM (inactive) | 49.8 µM (inactive) | 44.5 µM (inactive) | 80 µM (inactive) | 39.9 µM (inactive) | 32.9 µM (inactive) | 45.5 µM (inactive) | > 100 µM (inactive) | 21.6 µM (inactive) | 57.5 µM (inactive) | 56.6 µM (inactive) | 70.3 µM (inactive) | 50.5 µM (inactive) |  |
| CCOC(=O)Nc1c(C#N)[n+]([O-])c2cc(Cl)c(Cl)cc2[n+]1[O-] |  | 15.6 µM (inactive) | 14 µM (inactive) |  | 45.7 µM (inactive) | 18.2 µM (inactive) | 16.7 µM (inactive) | 16.4 µM (inactive) | 15.7 µM (inactive) | 13.7 µM (inactive) |  | 7.28 µM (inactive) | 14.6 µM (inactive) | 10.5 µM (inactive) | 21.7 µM (inactive) | 13.5 µM (inactive) | 14.3 µM (inactive) | 16.6 µM (inactive) | 4.09 µM (inactive) |
| COC1C(O)=C2C(=O)OC(C)(O)/C=C/C=C\C=C/C=C/C(c3ccccc3)NC(=O)/C=C/C=C/C=C/C=C/C2(C)C1O (stereo not drawn) | 0.00488 µM (active) | 0.0128 µM (active) | 0.00403 µM (active) | 0.00348 µM (active) | 0.0121 µM (active) | 0.00679 µM (active) | 0.001 µM (active) | 0.0193 µM (active) | 0.00646 µM (active) | < 0.001 µM (active) | < 0.001 µM (active) | 0.00339 µM (active) | 0.0461 µM (active) | 0.0356 µM (active) | 0.0258 µM (active) | 0.0152 µM (active) | 0.00522 µM (active) | 0.00984 µM (active) |  |
| Cc1ccnc(NC(=S)Nc2cccc(Cl)c2)c1 |  | > 100 µM (inactive) | > 100 µM (inactive) | > 100 µM (inactive) | 78.9 µM (inactive) | > 100 µM (inactive) | > 100 µM (inactive) | > 100 µM (inactive) |  | > 100 µM (inactive) | 0.02 µM (active) | > 100 µM (inactive) | > 100 µM (inactive) | > 100 µM (inactive) | > 100 µM (inactive) | > 100 µM (inactive) | > 100 µM (inactive) | > 100 µM (inactive) | > 100 µM (inactive) |
| O=C(O)C1OC1(c1cccc(Cl)c1)c1ccccc1Cl (stereo not drawn) | 31.7 µM (inactive) | 18.8 µM (inactive) | 19 µM (inactive) | 17.2 µM (inactive) | 23.9 µM (inactive) | 29.6 µM (inactive) | 29.4 µM (inactive) | 22.9 µM (inactive) | 38.2 µM (inactive) | 42.7 µM (inactive) | 24.5 µM (inactive) | 21.8 µM (inactive) | 22.1 µM (inactive) | 20 µM (inactive) | 33.9 µM (inactive) | 20.7 µM (inactive) | 11.1 µM (inactive) | 20.8 µM (inactive) |  |
| COCC1OCCN1C (stereo not drawn) | > 100 µM (inactive) | > 100 µM (inactive) | > 100 µM (inactive) |  | > 100 µM (inactive) | 88.3 µM (inactive) | > 100 µM (inactive) | > 100 µM (inactive) | > 100 µM (inactive) | > 100 µM (inactive) | > 100 µM (inactive) | > 100 µM (inactive) |  | > 100 µM (inactive) | > 100 µM (inactive) | > 100 µM (inactive) | > 100 µM (inactive) | > 100 µM (inactive) | > 100 µM (inactive) |
| NCCSc1nc(-c2ccccc2)c(-c2ccccc2)o1 | > 100 µM (inactive) | > 100 µM (inactive) | 37.1 µM (inactive) |  | > 100 µM (inactive) | > 100 µM (inactive) | > 100 µM (inactive) | > 100 µM (inactive) | > 100 µM (inactive) | 65.9 µM (inactive) | 29.6 µM (inactive) | > 100 µM (inactive) | > 100 µM (inactive) | > 100 µM (inactive) | > 100 µM (inactive) | 25.2 µM (inactive) | > 100 µM (inactive) | > 100 µM (inactive) | 7.38 µM (inactive) |
| CN(/N=C/c1cccs1)c1ccc([N+](=O)[O-])cc1[N+](=O)[O-] | > 100 µM (inactive) | > 100 µM (inactive) | > 100 µM (inactive) | > 100 µM (inactive) | > 100 µM (inactive) | > 100 µM (inactive) | > 100 µM (inactive) | > 100 µM (inactive) |  | > 100 µM (inactive) | > 100 µM (inactive) | > 100 µM (inactive) | > 100 µM (inactive) | > 100 µM (inactive) | > 100 µM (inactive) | > 100 µM (inactive) | > 100 µM (inactive) | > 100 µM (inactive) | > 100 µM (inactive) |
| O=C(Nc1ccccc1F)c1cc2ccc(O)cc2o/c1=N\c1cccc(F)c1 | 9.89 µM (inactive) | 15.3 µM (inactive) | 11.1 µM (inactive) | 5.28 µM (inactive) | 19 µM (inactive) | 12.6 µM (inactive) | 15.1 µM (inactive) | 14.8 µM (inactive) |  | 6.35 µM (inactive) | 2.37 µM (inactive) | 18.6 µM (inactive) | 12.3 µM (inactive) | 5.22 µM (inactive) | 15.9 µM (inactive) | 4.25 µM (inactive) | 12.4 µM (inactive) | 13 µM (inactive) | 12.9 µM (inactive) |
| O=C1CC2(CCC(O)(c3ccc(Cl)cc3)C(C(=O)c3ccc(Cl)cc3)C2)C(=O)c2ccccc2N1 (stereo not drawn) | 3.64 µM (inactive) | 19.7 µM (inactive) | 6.17 µM (inactive) | 11 µM (inactive) | 3.35 µM (inactive) | > 100 µM (inactive) | 22.7 µM (inactive) | > 29.9 µM (inactive) | 12.7 µM (inactive) | 3.33 µM (inactive) | 11.7 µM (inactive) | > 100 µM (inactive) | 4.53 µM (inactive) | 11.4 µM (inactive) | 2.26 µM (inactive) | 12.4 µM (inactive) | 2.6 µM (inactive) | 17.6 µM (inactive) |  |
| CC(=O)OCC(OC(C)=O)C(OC(C)=O)C(OC(C)=O)C(C=NN(C(C)=O)S(=O)(=O)c1ccc(/C=C2\NC(=O)N(C)C2=O)cc1)OC(C)=O (stereo not drawn) | 34.5 µM (inactive) | 33.9 µM (inactive) | 16.9 µM (inactive) |  | 85.1 µM (inactive) | 42.4 µM (inactive) | 40.1 µM (inactive) | 36.3 µM (inactive) | 38.7 µM (inactive) | 22.1 µM (inactive) | 23.7 µM (inactive) | 40.1 µM (inactive) |  | 30.1 µM (inactive) | 45 µM (inactive) | 27.1 µM (inactive) | 32.1 µM (inactive) | 57.5 µM (inactive) | 23.4 µM (inactive) |
| Cn1c(=O)c2c(nc3n2CC(C(=O)O)N3)n(C)c1=O (stereo not drawn) | > 100 µM (inactive) | > 100 µM (inactive) | > 100 µM (inactive) | > 100 µM (inactive) | > 100 µM (inactive) | > 100 µM (inactive) | > 100 µM (inactive) | > 100 µM (inactive) | > 100 µM (inactive) | > 100 µM (inactive) | > 100 µM (inactive) | > 100 µM (inactive) | > 100 µM (inactive) | > 100 µM (inactive) | > 100 µM (inactive) | > 100 µM (inactive) | > 100 µM (inactive) | > 100 µM (inactive) |  |
| COc1ccc(C2=Nn3c(nnc3-c3ccccc3)S/C2=C\c2ccc(-c3ccc([N+](=O)[O-])cc3)o2)cc1 | 64.1 µM (inactive) | 26.2 µM (inactive) | 29.6 µM (inactive) | 14.5 µM (inactive) | 52.4 µM (inactive) | 23.2 µM (inactive) | 15.1 µM (inactive) | 5.83 µM (inactive) |  | 27.4 µM (inactive) | 12.8 µM (inactive) | 27.3 µM (inactive) | 69.7 µM (inactive) | 27.6 µM (inactive) | 33.3 µM (inactive) | 18.6 µM (inactive) | 22.6 µM (inactive) | 36.4 µM (inactive) | 9.62 µM (inactive) |
| CN(C)c1ccc(C2C(Cl)C(=O)N2NC(=O)c2c(Cl)c(Cl)c(Cl)c(Cl)c2-c2nc3ccccc3[nH]2)cc1 (stereo not drawn) | 15.8 µM (inactive) | 13.6 µM (inactive) | 5.2 µM (inactive) | 3.3 µM (inactive) |  | 17.9 µM (inactive) | 5.53 µM (inactive) | 4.76 µM (inactive) | 15.8 µM (inactive) |  | 2.79 µM (inactive) | 12.9 µM (inactive) | 28.1 µM (inactive) | 16.1 µM (inactive) | 30.3 µM (inactive) | 6.62 µM (inactive) |  | 19.4 µM (inactive) | 0.685 µM (active) |
